These results are taken from EP2289882A1, “3-oxopiperazinium derivatives as agonists of nerve growth factor and their use as medicaments” (Institut d'Investigacions Biomédiques August PI I Sunyer, priority 2009, dated 2011).

In one assay the test system is PC12 cells. As to the kind of experiment: PC12 cell differentiation (neurite outgrowth). It is filed as cell-based. As to conditions: 3 days, 2 ng/ml to 50 µg/ml, reduced serum (0.5% FBS and 1% HS); compared with NGF 100 ng/ml. The method, then:
PC 12 cell differentiation was measured by plating cells onto collagen-coated 24-wells plates. NGF (100 ng/ml) or the small chemicals at different concentrations were added and the percentage of cells with neurite processes greater than two cell bodies in length were counted after relevant treatment. For each experiment at least 300 cells were randomly measured (Burstein and Greene, 1978). Cell culture. PC12 cells were maintained at 37°C in DMEM supplemented with 2.5% FBS, 15% of Horse serum (HS) and penicillin/streptomycin in a humidified 5% CO2 incubator. The cells were grown on 60-and 100-mm tissue culture dishes (Becton Dickinson). PC 12 cells were cultured for 3 days in the presence of the peptoids (from 2 ng/ml to 50 µg/ml) under reduced serum conditions (0.5% FBS and 1% HS).

The next assay relates to RN22 cells. The experiment in a line: RN22 cell survival assay under CuSO4 stress (MTT). It is filed as cell-based, rat. To be noted: CuSO4 150 µM stress, 1 ng/ml - 10 µg/ml, 24 h; RN22 expresses p75 but not TrkA. The method, then: Compounds identified from the initial library screening were also tested to assess their capacity to promote cell survival. To delineate p75 signalling independent of TrkA, we used a rat schwannoma cell line (RN22) expressing p75, but not TrkA, (Gentry et al., 2000). Cell culture. The rat schawnnoma cell line RN22 was cultured in 5% CO2 at 37°C in Dulbecco's modified Eagle's medium (DMEM) with 10% fetal bovine serum (FBS) and penicillin/streptomycin. RN22 cells were plated at 20,000 cells/well on a 24-well plate in DMEM alone and after allowing the cells to adhere for 3 days, cupper sulphate (CuSO4) (150 µM) was added with or without NGF (100 ng/ml) or the peptidomimetic molecules A26-23, A26-24 and A28-A6 at different concentrations (1 ng/ml - 10 µg/ml) to generate stress and cell death. After 24 h cell viability was studied by determining the amount of yellow MTT (Sigma) that was reduced to insoluble purple formazan. After removing the medium, the water-insoluble formazan was solubilised with DMSO (Sigma), and the dissolved material was measured spectrophotometrically at a wavelength of 570 nm, subtracting the background at 650 nm (Frade, 2005).

With “8-[2-(2-(5-methyl-1H-indol-2-yl)ethylamino)-2-oxoethyl]-7-oxo-8-aza-5-azoniaspiro[4.5]decane [A28-A6]”, the “differentiation of PC12 cells (percentage of cells with neurite processes greater than two cell bodies in length)” value in the assay on PC12 cells is listed as “induce the differentiation of PC12 cells at different concentrations to an extent substantially comparable with that induce by NGF”. Moreover, the “survival of RN22 cells (cell viability, MTT)” value in the assay on RN22 cells is on record as “not to promote survival of RN22 cells”.
The matching figures for `C[N+]1(Cc2ccccc2)CCN(CC(=O)NCCc2ccc([N+](=O)[O-])cc2)C(=O)C1.[Cl-]` (stereo not drawn) [A26-64, 1-benzyl-1-methyl-4-[2-(4-nitrophenethylamino)-2-oxoethyl]-3-oxopiperazinium chloride]: “induce the differentiation of PC12 cells at different concentrations to an extent substantially comparable with that induce by NGF” and “not to promote survival of RN22 cells”.
For `C[N+]1(C)CCN(CC(=O)NCCc2ccc([N+](=O)[O-])cc2)C(=O)C1.[Cl-]` [A26-23, 1,1-dimethyl-4-[2-(4-nitrophenethylamino) -2-oxoethyl] -3-oxopiperazinium chloride], in the assay on PC12 cells, the “differentiation of PC12 cells (percentage of cells with neurite processes greater than two cell bodies in length)” value is listed as “induce the differentiation of PC12 cells at different concentrations to an extent substantially comparable with that induce by NGF”. In addition, the “survival of RN22 cells (cell viability, MTT)” value in the assay with RN22 cells is “not to promote survival of RN22 cells”.
